Experimental findings from ChEMBL document CHEMBL1201862, “PubChem BioAssay data set” (2004) are described below.

Among the test systems are A498; HCT-15; UO-31; Malme-3M; HOP-62; SF-295; 786-0; MOLT-4; OVCAR-8; IGROV-1; SK-OV-3; SW-620; TK-10; UACC-257; OVCAR-5; SN12C; HT-29; NCI-H23.
Assay in all cases: NCI-60 cell line screen, 48 h

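The compound was tested at five concentrations on cells cultured in 96-well plates, with a 48-hour exposure period. GI50 is the concentration that inhibits growth by half.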 Calls of active or inactive are those of the source. No stated cut-off is given here; in the data, active = GI50 up to about 1.1 µM and inactive = higher.

Take `COc1c(C)c(O)c2c(c1C)OC(c1ccccc1)CC2=O` (stereo not drawn): the GI50 was 19.9 µM (inactive) in the assay on A498; 30.5 µM in the assay on HCT-15; 61.7 µM (inactive) in the assay with UO-31; 24.6 µM (inactive) in the assay with Malme-3M; > 100 µM (inactive) with HOP-62; 50.6 µM (inactive) in the assay on SF-295. Besides, the GI50 in the assay on 786-0 was 89.3 µM (inactive); with MOLT-4, 31.8 µM (inactive); in the assay with OVCAR-8 it was 62.4 µM (inactive); in the assay on IGROV-1 it was 98.9 µM (inactive); in the assay on SK-OV-3 it was > 100 µM (inactive); in the assay on SW-620 it was 64.4 µM (inactive). The GI50 in the assay on TK-10 is 42.9 µM (inactive); in the assay with UACC-257, > 10 µM (inactive); with OVCAR-5, 61.8 µM (inactive); in the assay on SN12C, 52.5 µM (inactive); with HT-29, 43.2 µM (inactive); in the assay with NCI-H23, 42.5 µM (inactive).

As to `COc1cccc(/C(Cl)=C(\C=O)c2cccc(OC)c2)c1`, the GI50 in the assay on A498 is 19.3 µM (inactive); with HCT-15, 5.6 µM; with UO-31, 13 µM (inactive); with Malme-3M, 0.946 µM (active); with HOP-62, 12.3 µM (inactive); in the assay with SF-295, 12.2 µM (inactive). Also, the GI50 in the assay on 786-0 was 14.8 µM (inactive); with MOLT-4 it was 7.74 µM (inactive); in the assay with OVCAR-8 it was 10.7 µM (inactive); with IGROV-1, 21 µM (inactive); in the assay on SK-OV-3 it was 20 µM (inactive); with SW-620, 6.81 µM (inactive). Besides, the GI50 was 20.4 µM (inactive) in the assay on TK-10; 15.3 µM (inactive) in the assay with UACC-257; 19.6 µM (inactive) with OVCAR-5; 14 µM (inactive) in the assay on SN12C; 12.3 µM (inactive) in the assay with HT-29; 5.77 µM (inactive) in the assay with NCI-H23.

Consider `COC(=O)[C@@]12C3=NO[C@]1(C(=O)OC)C(O[Si](C)(C)C(C)(C)C)[C@@H](OC(C)=O)[C@@H](OC(C)=O)[C@@H]2[C@@H](OCc1ccccc1)CC3` (stereo partly drawn), for which the GI50 was > 85.3 µM (inactive) in the assay with A498; more than 30.9 µM in the assay with HCT-15; > 19.9 µM (inactive) in the assay with UO-31; 7.28 µM (inactive) with Malme-3M; > 100 µM (inactive) in the assay with HOP-62; 5.68 µM (inactive) in the assay on SF-295. The GI50 in the assay with 786-0 was 14.2 µM (inactive); with MOLT-4, 5.14 µM (inactive); with OVCAR-8 it was > 61.1 µM (inactive); in the assay with IGROV-1 it was > 29 µM (inactive); in the assay with SK-OV-3, > 100 µM (inactive); with SW-620, > 100 µM (inactive). Moreover, the GI50 was > 100 µM (inactive) with TK-10; 17.4 µM (inactive) with UACC-257; 8.79 µM (inactive) with OVCAR-5; > 100 µM (inactive) in the assay on SN12C; > 72.3 µM (inactive) in the assay with HT-29; 4.9 µM (inactive) in the assay on NCI-H23.

Regarding `FC(F)(F)c1nc(-c2ccccc2)oc1Sc1nnc(Sc2oc(-c3ccccc3)nc2C(F)(F)F)s1`, the GI50 in the assay on A498 was 98.6 µM (inactive); with HCT-15 it was 25.3 µM; with UO-31, > 100 µM (inactive); in the assay on Malme-3M, 18.1 µM (inactive); in the assay on HOP-62, > 100 µM (inactive); in the assay with SF-295, > 67.1 µM (inactive). Besides, the GI50 in the assay on 786-0 is 28.4 µM (inactive); in the assay with MOLT-4, 6.84 µM (inactive); with OVCAR-8, 22.7 µM (inactive); with IGROV-1, 24.2 µM (inactive); in the assay with SK-OV-3 it was > 100 µM (inactive); in the assay on SW-620 it was > 60.3 µM (inactive). Further, the GI50 with TK-10 is > 55.8 µM (inactive); in the assay with UACC-257, > 69.7 µM (inactive); in the assay on OVCAR-5, > 100 µM (inactive); in the assay with SN12C it was 39.4 µM (inactive); in the assay on HT-29 it was > 100 µM (inactive); in the assay with NCI-H23, 24.2 µM (inactive).

Turning to `COc1ccc(N(C)CN(C)c2nc(N(C)C)nc(N(C)C)n2)cc1`, the GI50 in the assay on A498 is > 100 µM (inactive); with HCT-15, more than 100 µM; in the assay with UO-31, > 100 µM (inactive); in the assay on Malme-3M, > 100 µM (inactive); with HOP-62 it was > 100 µM (inactive); in the assay with SF-295, > 100 µM (inactive). In addition, the GI50 in the assay on 786-0, in the assay with MOLT-4, with OVCAR-8, in the assay on IGROV-1, in the assay on SK-OV-3 and in the assay with SW-620 was > 100 µM (inactive) each time. In addition, the GI50 in the assay with TK-10, in the assay with UACC-257, in the assay on OVCAR-5, in the assay on SN12C, in the assay with HT-29 and in the assay with NCI-H23 was > 100 µM (inactive) throughout.

For `CC1=C2CCCC2C/C(=N/Nc2ccc([N+](=O)[O-])cc2[N+](=O)[O-])CC1` (stereo not drawn), the GI50 is > 100 µM (inactive) in the assay with A498; more than 100 µM in the assay with HCT-15; > 100 µM (inactive) with UO-31; > 100 µM (inactive) in the assay with Malme-3M; > 100 µM (inactive) with HOP-62; > 100 µM (inactive) with SF-295. The GI50 in the assay on 786-0, in the assay on MOLT-4, in the assay on OVCAR-8, in the assay on IGROV-1, with SK-OV-3 and with SW-620 was > 100 µM (inactive) in each case. The GI50 in the assay with TK-10, in the assay on UACC-257, with OVCAR-5, in the assay with SN12C, in the assay with HT-29 and in the assay with NCI-H23 was > 100 µM (inactive) each time.

Regarding `O=C1c2cccc3cccc(c23)C(=O)N1CCCN1CCN(CCCN2C(=O)c3cccc4cccc(c34)C2=O)CC1`, the GI50 with A498 was > 100 µM (inactive); with HCT-15, more than 100 µM; with UO-31, > 100 µM (inactive); with Malme-3M it was > 100 µM (inactive); with HOP-62 it was > 100 µM (inactive); in the assay on SF-295 it was > 100 µM (inactive). Besides, the GI50 with 786-0, with MOLT-4, in the assay with OVCAR-8, with IGROV-1, with SK-OV-3 and in the assay with SW-620 was > 100 µM (inactive) throughout. In addition, the GI50 in the assay with TK-10, with UACC-257, in the assay with OVCAR-5, in the assay on SN12C, in the assay on HT-29 and in the assay on NCI-H23 was > 100 µM (inactive) in each case.

As to `NNC(=O)C(=O)NN=C(C(Cl)(Cl)CO)C(Cl)(Cl)CO`, the GI50 in the assay on A498 was > 100 µM (inactive); in the assay on HCT-15 it was 25.7 µM; in the assay with UO-31 it was 45.7 µM (inactive); in the assay with Malme-3M, 19.8 µM (inactive); in the assay on HOP-62, 70.8 µM (inactive); with SF-295 it was 66.1 µM (inactive). The GI50 in the assay with 786-0 was 36.4 µM (inactive); with MOLT-4, 21.2 µM (inactive); with OVCAR-8 it was 21.3 µM (inactive); with IGROV-1 it was > 100 µM (inactive); in the assay with SK-OV-3, > 100 µM (inactive); in the assay on SW-620, 18.4 µM (inactive). Also, the GI50 in the assay with TK-10 is 60.3 µM (inactive); with UACC-257, 30.6 µM (inactive); in the assay with OVCAR-5, 31.3 µM (inactive); in the assay on SN12C, > 100 µM (inactive); with HT-29 it was 37.3 µM (inactive); in the assay with NCI-H23, 30.5 µM (inactive).

In the case of `COc1ccc(C)cc1-c1ccc(-c2cc(C)ccc2OC)o1`, the GI50 in the assay on A498 is > 100 µM (inactive); in the assay on HCT-15 it was more than 100 µM; with UO-31, > 100 µM (inactive); in the assay on Malme-3M, 66.4 µM (inactive); in the assay on HOP-62, > 100 µM (inactive); with SF-295 it was > 100 µM (inactive). The GI50 in the assay on 786-0, in the assay with MOLT-4, in the assay with OVCAR-8, in the assay on IGROV-1, in the assay on SK-OV-3 and with SW-620 was > 100 µM (inactive) each time. In addition, the GI50 is > 100 µM (inactive) with TK-10; > 100 µM (inactive) in the assay on UACC-257; 87.1 µM (inactive) in the assay with OVCAR-5; > 100 µM (inactive) with SN12C; > 100 µM (inactive) with HT-29; > 100 µM (inactive) with NCI-H23.

As for `O=c1/c(=C/c2ccccc2[N+](=O)[O-])sc2nnc(-c3ccco3)n12`, the GI50 in the assay on A498 was > 100 µM (inactive); with HCT-15 it was 28.2 µM; with UO-31 it was 30.5 µM (inactive); with Malme-3M it was 23 µM (inactive); in the assay with HOP-62, 19.3 µM (inactive); in the assay with SF-295, 23.6 µM (inactive). Also, the GI50 with 786-0 is 42 µM (inactive); with MOLT-4, 31.6 µM (inactive); with OVCAR-8, 17 µM (inactive); with IGROV-1, 25.1 µM (inactive); in the assay with SK-OV-3, 47.4 µM (inactive); with SW-620, 20.4 µM (inactive). Besides, the GI50 in the assay on TK-10 is > 100 µM (inactive); in the assay with UACC-257, 33.9 µM (inactive); with OVCAR-5, 50.2 µM (inactive); in the assay with SN12C, 34.5 µM (inactive); with HT-29, 28.1 µM (inactive); in the assay with NCI-H23 it was 22.2 µM (inactive).

Turning to `COc1cc(/C=C/c2ccc(Br)cc2)cc(OC)c1OC`, the GI50 with A498 was 6.71 µM (inactive); with HCT-15, 7 µM; with UO-31, 9.77 µM (inactive); with Malme-3M, 6.08 µM (inactive); with HOP-62, 13.7 µM (inactive); in the assay with SF-295, 6.73 µM (inactive). In addition, the GI50 was 19.9 µM (inactive) in the assay on 786-0; 3.21 µM (inactive) in the assay with MOLT-4; 28.3 µM (inactive) in the assay on OVCAR-8; 23.6 µM (inactive) in the assay with IGROV-1; 20.7 µM (inactive) in the assay on SK-OV-3; 7.62 µM (inactive) in the assay with SW-620. The GI50 in the assay on TK-10 was 21.6 µM (inactive); in the assay on UACC-257 it was 13.5 µM (inactive); with OVCAR-5, 16.6 µM (inactive); with SN12C it was 18.7 µM (inactive); in the assay on HT-29, 6.44 µM (inactive); with NCI-H23 it was 16.3 µM (inactive).
